Measured values published in PubChem BioAssay (NCI).
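Tested at 5 concentrations; 48 h exposure; 96-well plates; endpoints linearly interpolated, else capped at highest concentration. Here, GI50 denotes the concentration required for 50% inhibition of growth. The concentration for full growth arrest is given as TGI.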

Test system: MDA-MB-468 breast
Assay: inhibition of tumour cell growth, NCI panel, 48 h

Row | Structure (SMILES) | GI50 [µM] | TGI [µM]
1 | CC(C(=O)O)c1ccc(-c2ccccc2)c(F)c1 (stereo unspecified) | > 100 | > 100
2 | CNCCNc1nc2ccccc2c2c(=O)c3cc(F)ccc3sc12 | 1.7 | 3.46
3 | Cc1cc2nc(-c3c(N)ncc(C#N)c3-c3ccc(Cl)cc3)[nH]c2cc1C | 12.4 | 51.5
